Where two headings read alike, the source gives them in different places.
Assays:
[1] = system: hepatic ischemia/reperfusion in rats; conditions: oral pretreatment, 25% in vehicle-treated animals; cited from earlier work
[2] = from 1 through 7 hours after instillation; cited from earlier work
[3] = system: cellular ROCK activity (cofilin phosphorylation at Ser3) in A7r5 rat smooth muscle cells; assay: Cellular ROCK activity: cofilin (Ser3) phosphorylation, In-Cell Western assay; format: cell-based; conditions: Rattus norvegicus, A7R5, 1 h, 1 hour compound incubation, phospho-cofilin (Ser3), read-out: CELL_IC50
Method in brief: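 A7r5 rat smooth muscle cells (3000/well, overnight) exposed to compound for 1 h at 37° C., then formaldehyde-fixed. Phospho-cofilin Ser3 detected by In-Cell Western with 800CW secondary antibody, read at 700 and 800 nm on an Odyssey imager.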

[4] = target: T1, human catalytic domain ROCK II protein (amino acids 5-554) with a N-terminal GST tag (Homo sapiens, UniProt O75116)
T1 sequence (O75116 5-554): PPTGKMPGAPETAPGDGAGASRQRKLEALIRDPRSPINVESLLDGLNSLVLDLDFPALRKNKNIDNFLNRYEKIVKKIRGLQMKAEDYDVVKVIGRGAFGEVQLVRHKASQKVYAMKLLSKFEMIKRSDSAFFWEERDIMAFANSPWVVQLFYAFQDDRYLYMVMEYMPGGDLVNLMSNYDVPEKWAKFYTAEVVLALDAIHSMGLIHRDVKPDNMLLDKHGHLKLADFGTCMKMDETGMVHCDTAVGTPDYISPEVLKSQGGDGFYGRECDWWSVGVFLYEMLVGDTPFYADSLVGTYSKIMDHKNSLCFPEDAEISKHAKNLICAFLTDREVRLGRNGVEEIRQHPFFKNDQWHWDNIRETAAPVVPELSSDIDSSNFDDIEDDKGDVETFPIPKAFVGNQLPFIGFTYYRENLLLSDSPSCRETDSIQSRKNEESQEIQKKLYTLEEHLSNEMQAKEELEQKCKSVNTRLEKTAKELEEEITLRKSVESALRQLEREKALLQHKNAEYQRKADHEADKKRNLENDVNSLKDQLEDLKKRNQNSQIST
Description: (§1) The potency of Rho-associated protein kinase (ROCK) II inhibitors was quantified by measuring ROCKII kinase domain enzymatic activity using ADP-Glo™ Kinase Assay format. […] ADP-Glo™ Reagent was added that terminates ROCKII reaction and depletes remaining ATP. Kinase Detection Reagent was added to convert ADP to ATP and allow newly synthesized ATP to be measured using luciferase/luciferin reaction. The light generated correlates to the amount of ADP generated in the ROCKII biochemical reaction, which is indicative of ROCKII activity.
(§2) ROCK inhibitor compound plate preparation. Lyophilized ROCK inhibitors were re-suspended to a final concentration of 10 mM in 100% dimethyl sulfoxide (DMSO) and control reference compound, Fasudil HCl, to a final concentration of 100 mM in 100% DMSO using Janus automated liquid handler workstation (Perkin Elmer) and were stored at room temperature under nitrogen. Stock compounds and controls were added directly to ECHO plate (Labcyte) by Janus. The Echo 555 liquid handler (Labcyte) dispensed duplicate 10-point concentration-response curves for each compound directly into 384-well, black, U-bottom assay plate (Matrix Technologies Ltd) at 100× final assay concentration. Final compound or control volume per well is 100 nl (0.1 μl). Assay standards were prepared by Echo dispensing 5 nl of 100 mM Fasudil HCl and 95 nl DMSO for full inhibition control (50 μM final assay concentration and 1% DMSO) and 100 nl of DMSO for full activity control (1% DMSO).
(§3) The ROCKII catalytic domain enzyme was human catalytic domain ROCK II protein (amino acids 5-554) with a N-terminal GST tag (SignalChem).
(§4) Preparation of S6K peptide substrate (20 μM) and ATP (10 μM). The S6K peptide sequence (amino acid sequence [sequence]) was based on human 40 S ribosomal protein S6 (amino acids 230-238) (SignalChem). A 2× working solution of substrate and ATP was prepared from 5 mg/ml stock aliquot (dissolved in 20 mM Tris-HCl, pH 7.5) of S6K peptide diluted to 0.25 μg/10 μl (20 μM) with assay buffer (25 mM MOPS, 12.5 mM 2-glycerophosphate, 5 mM EGTA pH 8.0, 25 mM MgCl2, 2 mM EDTA, 0.25 mM DTT (added on the day of assay) and 0.01% BSA (added on the day of assay)).
(§5) Assay procedure. 5 μl/well substrate/ATP mix was added to each well of the assay plate containing compounds using 125 μl 16-channel Matrix electronic pipette (Matrix Technologies Ltd.). The plate was sealed, mixed on orbital shaker at 1000 rpm (rotations per minute) for 10 seconds and centrifuged at 1000 rpm for 1 min. The assay was started by addition of 5 μl/well of the ROCKII enzyme mix to each well using 125 μl 16-channel Matrix electronic pipette. The assay plate was sealed, mixed on orbital shaker at 1000 rpm for 10 seconds and centrifuged at 1000 rpm for 1 min. The assay plate was incubated for 30 min at room temperature on an orbital shaker at 400 rpm. The enzyme reaction was stopped by addition of 10 μl/well of ADP-Glo™ solution to assay plate using 125 μl 16-channel Matrix electronic pipette. The assay plate was sealed, mixed on orbital shaker at 1000 rpm for 10 seconds and centrifuged at 1000 rpm for 1 min. The assay plate was placed in a polystyrene box for 40 minutes at room temperature. Next, 20 μl/well of Kinase Detection Reagent was added to assay plate using 125 μl 16-channel Matrix electronic pipette. The assay plate was further incubated in a polystyrene box for 30 min at room temperature without the seal and luminescence signal was measured using EnVision (Perkin Elmer) in top read mode.

[5] = target: T1, human catalytic domain ROCK II protein (amino acids 5-554) with a N-terminal GST tag; assay: biochemical
Description: as §1, §2, §3, §4, §5

| IC50 [3] | IC50 [4] | IC50 [5] | Compound | survival at one week after ischemia [1] | intraocular pressure reduction [2] |
| --- | --- | --- | --- | --- | --- |
|  |  |  | C[C@@H](N)[C@H]1CC[C@H](C(=O)Nc2ccncc2)CC1 [Example Y27632] | 75% |  |
|  |  |  | C[C@H]1CNCCCN1S(=O)(=O)c1cccc2cncc(F)c12 [Ripasudil] |  | Significant intraocular pressure reduction |
| 323 nM | 26.3 nM |  | COc1cccc([C@@H](C)NC(=O)N2CCN(c3ccncc3F)C[C@H]2C)c1F [Example 44, (R)—N—((R)-1-(2-Fluoro-3-methoxyphenyl)ethyl)-4-(3-fluoropyridin-4-yl)-2-methylpiperazine-1-carboxamide] |  |  |
| 184 nM |  | 7.8 nM | C[C@@H]1CN(c2ccncc2F)CCN1C(=O)N[C@H](C)c1ccc(F)cc1Cl [Example 50, (R)—N—((R)-1-(2-Chloro-4-fluorophenyl)ethyl)-4-(3-fluoropyridin-4-yl)-2-methylpiperazine-1-carboxamide] |  |  |
| 97.5 nM |  | 4.2 nM | COc1cccc(CNC(=O)N2CCN(c3ccncc3F)C[C@H]2C)c1 [Example 138] |  |  |
| 34.3 nM |  | 4.2 nM | C[C@@H]1CN(c2ccncc2F)CCN1C(=O)NCc1cccc2nn(C)cc12 [Example 78, (R)-4-(3-Fluoropyridin-4-yl)-2-methyl-N-((2-methyl-2H-indazol-4-yl)methyl)piperazine-1-carboxamide] |  |  |
| 200 nM |  | 11.5 nM | C[C@@H]1CN(c2ccnc(F)c2)CCN1C(=O)N[C@H](C)c1cccc2c1OCO2 [Example 12, (R)—N—((R)-1-(Benzo[d][1,3]dioxol-4-yl)ethyl)-4-(2-fluoropyridin-4-yl)-2-methylpiperazine-1-carboxamide] |  |  |
| 39.1 nM |  | 5 nM | C[C@@H]1CN(c2ccncc2F)CCN1C(=O)N[C@H](C)c1cccc2c1CC(C)(C)O2 [Example 57, (R)—N—((R)-1-(2,2-Dimethyl-2,3-dihydrobenzofuran-4-yl)ethyl)-4-(3-fluoropyridin-4-yl)-2-methylpiperazine-1-carboxamide] |  |  |
| 1320 nM |  | 38.3 nM | COc1ccc(F)c([C@@H](C)NC(=O)N2CCN(c3ccnc(F)c3)C[C@H]2C)c1 [Example 112] |  |  |
| 413 nM |  | 12.4 nM | C[C@@H](NC(=O)N1CCN(c2ccncc2F)[C@@H](C)C1)c1cccc(OC(F)F)c1 [Example 145] |  |  |
| ≥ 5000 nM |  | 3120 nM | COc1cccc([C@@H](C)NC(=O)N2C[C@@H]3C[C@H]2CN3c2ccncc2F)c1 [Example 99] |  |  |
| 1150 nM |  | 55.1 nM | COc1cccc(CN2CC[C@@H]3CN(c4ccncc4F)CCN3C2=O)c1 [Example 89, (R)-2-(3-Fluoropyridin-4-yl)-7-(3-methoxybenzyl)octahydro-6H-pyrazino[1,2-c]pyrimidin-6-one] |  |  |
| 902 nM |  | 37.5 nM | COc1ccc(Cl)c([C@@H](C)NC(=O)N2CCN(c3ccncc3F)CC2)c1 [Example 24, (R)—N-(1-(2-Chloro-5-methoxyphenyl)ethyl)-4-(3-fluoropyridin-4-yl)piperazine-1-carboxamide] |  |  |
| 240 nM |  | 12.3 nM | Cc1cnc2cccc([C@@H](C)NC(=O)N3CCN(c4ccnc(F)c4)C[C@H]3C)n12 [Example 9, (R)-4-(2-Fluoropyridin-4-yl)-2-methyl-N—((R)-1-(3-methylimidazo[1,2-a]pyridin-5-yl)ethyl)piperazine-1-carboxamide] |  |  |
| 87.7 nM |  | 5.8 nM | C[C@@H](NC(=O)N1CCN(c2ccncc2F)CC1)c1cccc2c1OCO2 [Example 27, (R)—N-(1-(Benzo[d][1,3]dioxol-4-yl)ethyl)-4-(3-fluoropyridin-4-yl)piperazine-1-carboxamide] |  |  |
| ≥ 5000 nM |  | 1490 nM | COc1cccc(CN2C[C@H]3CN(c4ccncc4F)CCN3C2=O)c1 [Example 87, (R)-7-(3-Fluoropyridin-4-yl)-2-(3-methoxybenzyl)hexahydroimidazo[1,5-a]pyrazin-3(2H)-one] |  |  |
| 1270 nM |  | 297 nM | Cc1cnc2cccc([C@H](C)NC(=O)N3CCN(c4ccncc4F)C[C@H]3C)n12 [Example 66, (R)-4-(3-Fluoropyridin-4-yl)-2-methyl-N—((S)-1-(3-methylimidazo[1,2-a]pyridin-5-yl)ethyl)piperazine-1-carboxamide] |  |  |

— patent US12428413B2 (CHDI Foundation, Inc., priority 2019, dated 2025)
